The text below walks through data of patent US9556160B2, “Guanidine compound” (Astellas Pharma Inc., priority 2011, dated 2017).

Assay [1] has as its system albuminuria in STZ-treated rats. The assay can be described thus: Effect on albuminuria in rats with diabetes mellitus (STZ). As to conditions: oral 0.3 mg/kg once daily, after 4 weeks; for amount of urinary albumin excretion: 24-hour urine. It counts as in vivo, SD rats. The procedure:
Seven-to eight-week SD rats (having weights up to 200 to 250 g during fasting) were used and fasted for 20 hours, and then intraperitoneally administered with 60 mg/ml/kg of streptozotocin (STZ) prepared with a 2 mmol/l citric acid buffer (pH 4.5). At the same time, the control rats were injected with the same amount of a 2 mmol/l citric acid buffer (pH 4.5).
The test substance was given daily for 4 weeks after the treatment with STZ. After 4 weeks of the treatment with the test substance, 24-hour urine collection was performed using metabolic cages.

For assay [2], the system named is VAP-1 enzyme (SSAO) activity in rat plasma. Kind of assay: Inhibitory effect on rat VAP-1 enzyme (SSAO) activity in rat plasma after oral administration. It counts as in vivo, Wistar male rats. As to conditions: rat plasma VAP-1 activity, oral 0.3 mg/kg; for Inhibition Ratio (%) 1 h: 1 h after administration; for Inhibition Ratio (%) 3 h: 3 h after administration; for Inhibition Ratio (%) 6 h: 6 h after administration; for Inhibition Ratio (%) 24 h: 24 h after administration. As to the method:
Eight-week to twelve-week Wistar male rats were fasted for 20 hours, and orally administered with a test drug ([…]). Heparin blood collection from the tail vein was performed immediately before the administration, and at 1 h, 3 h, 6 h, 12 h, or 24 h after the administration. The resulting blood was subjected to centrifugation at 14000 rpm for 5 minutes to separate plasma, and the VAP-1 enzyme activity in the resulting plasma was measured by a radio-enzyme assay method.
For the radio-enzyme assay method, ^14C-benzylamine which is a synthetic substrate (10 μM) was reacted with the resulting plasma at 37° C., and the resulting metabolite was extracted with a mixture of toluene/ethyl acetate. The radioactivity was measured and taken as a VAP-1 enzyme activity in the plasma. The effect of the test drug was calculated from the inhibitory ratio (%) of the VAP-1 activity after the administration of the test drug relative to the VAP-1 activity in the plasma immediately before the administration.

The target of assay [3] is human VAP-1 enzyme (SSAO) (Homo sapiens (Human), UniProt Q16853). Kind of assay: Inhibitory effect on human VAP-1 enzyme (SSAO) activity, radiochemistry-enzymatic assay with 14C-benzylamine. It counts as biochemical. As to conditions: CHO-expressed human VAP-1, 14C-benzylamine 1×10^−5 mol/L. As to the method:
(§1) After homogenizing CHO (Chinese Hamster Ovary) cells stably expressing a human VAP-1 enzyme (SSAO) in a 50 mM phosphate buffer containing 1% NP-40, an enzyme suspension was obtained by taking the supernatant obtained by centrifugation. The enzyme suspension was preincubated with the compound of the present invention in a 96-well microplate at room temperature for 30 minutes. Subsequently, the enzyme suspension was incubated with ^14C-benzylamine (a final concentration of 1×10^−5 mol/L) to a final volume of […] at 37° C. for 1 hour. The enzymatic reaction was stopped by the addition of 2 mol/L (50 pt) of citric acid.

For another assay, the target named is rat VAP-1 enzyme (SSAO) (Rattus norvegicus (Rat), UniProt O08590). The assay can be described thus: Inhibitory effect on rat VAP-1 enzyme (SSAO) activity, radiochemistry-enzymatic assay with 14C-benzylamine. As to conditions: CHO-expressed rat VAP-1, 14C-benzylamine 1×10^−5 mol/L. The format is biochemical. The procedure:
as §1, with “rat” for “human”, “μL)” for “pt)”, “acid. The oxidation products were extracted directly in a 200 μL toluene scintillator, and the radioactivity was measured with a scintillation spectrometer.” for “acid.”

SMILES strings stand for the structures.

Sequence of rat VAP-1 enzyme (SSAO) (O08590 whole entry): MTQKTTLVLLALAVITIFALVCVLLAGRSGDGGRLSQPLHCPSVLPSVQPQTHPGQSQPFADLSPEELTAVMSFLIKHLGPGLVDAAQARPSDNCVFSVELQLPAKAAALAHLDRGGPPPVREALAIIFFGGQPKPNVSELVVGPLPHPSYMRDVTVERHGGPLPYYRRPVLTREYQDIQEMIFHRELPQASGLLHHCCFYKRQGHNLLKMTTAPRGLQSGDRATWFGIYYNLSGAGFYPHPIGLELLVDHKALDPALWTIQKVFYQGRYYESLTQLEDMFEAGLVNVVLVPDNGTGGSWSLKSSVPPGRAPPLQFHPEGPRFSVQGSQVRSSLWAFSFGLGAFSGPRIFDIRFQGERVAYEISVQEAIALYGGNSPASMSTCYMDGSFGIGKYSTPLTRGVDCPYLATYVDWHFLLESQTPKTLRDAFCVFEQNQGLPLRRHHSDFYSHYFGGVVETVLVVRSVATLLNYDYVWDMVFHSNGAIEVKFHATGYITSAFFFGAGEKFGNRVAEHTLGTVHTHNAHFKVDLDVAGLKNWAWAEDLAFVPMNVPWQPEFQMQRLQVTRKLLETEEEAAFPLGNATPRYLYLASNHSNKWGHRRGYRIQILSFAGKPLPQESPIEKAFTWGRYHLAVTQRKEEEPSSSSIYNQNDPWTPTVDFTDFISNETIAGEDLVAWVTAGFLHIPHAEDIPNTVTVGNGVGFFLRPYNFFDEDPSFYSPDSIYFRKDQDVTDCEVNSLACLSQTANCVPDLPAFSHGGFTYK
Sequence of human VAP-1 enzyme (SSAO) (Q16853 whole entry): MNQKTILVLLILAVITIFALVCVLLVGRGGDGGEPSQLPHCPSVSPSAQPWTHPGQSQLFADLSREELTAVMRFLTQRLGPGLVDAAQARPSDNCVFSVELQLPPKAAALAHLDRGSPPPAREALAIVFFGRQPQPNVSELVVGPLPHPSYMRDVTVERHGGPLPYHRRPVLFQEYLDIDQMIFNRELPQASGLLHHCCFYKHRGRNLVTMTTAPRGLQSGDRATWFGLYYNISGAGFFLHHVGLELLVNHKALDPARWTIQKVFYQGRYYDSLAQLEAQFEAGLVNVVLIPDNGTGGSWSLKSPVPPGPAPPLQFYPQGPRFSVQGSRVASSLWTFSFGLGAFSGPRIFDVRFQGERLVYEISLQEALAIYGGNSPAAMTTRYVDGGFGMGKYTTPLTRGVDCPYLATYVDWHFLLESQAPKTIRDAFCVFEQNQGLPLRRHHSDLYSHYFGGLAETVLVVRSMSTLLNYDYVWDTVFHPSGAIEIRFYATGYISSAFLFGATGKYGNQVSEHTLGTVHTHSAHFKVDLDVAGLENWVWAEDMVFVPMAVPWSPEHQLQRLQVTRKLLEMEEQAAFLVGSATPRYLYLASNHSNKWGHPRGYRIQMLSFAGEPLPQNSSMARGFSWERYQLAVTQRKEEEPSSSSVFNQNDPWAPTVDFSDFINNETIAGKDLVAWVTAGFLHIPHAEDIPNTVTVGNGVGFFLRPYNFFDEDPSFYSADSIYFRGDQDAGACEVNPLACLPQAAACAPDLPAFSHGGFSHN

As to `CC(=O)N1CCC(COc2ncc(-c3cccc(COC(=O)NC(=N)N)c3F)cn2)CC1` [Example 11], in assay [1], the “urinary albumin excretion relative to that of the control group” value stood at 1.5 times and the “amount of urinary albumin excretion” value came to 103 mg/gCr. Moreover, in assay [2], the “Inhibition Ratio (%) 1 h” value is given as 64%, the “Inhibition Ratio (%) 3 h” value came out at 70%, the “Inhibition Ratio (%) 6 h” value is recorded as 63% and the “Inhibition Ratio (%) 24 h” value worked out at 12%. Besides, in assay [3], the IC50 was determined as 5.2 nM. This compound yielded an IC50 at rat VAP-1 enzyme (SSAO) of 2.2 nM.
For `COCc1ccc(N2CCN(c3cccc(COC(=O)NC(=N)N)c3F)CC2)cn1` [Example 554], in assay [2], the “Inhibition Ratio (%) 1 h” value is reported as 99%, the “Inhibition Ratio (%) 3 h” value was 100%, the “Inhibition Ratio (%) 6 h” value stood at 87% and the “Inhibition Ratio (%) 24 h” value is 72%. The compound further returned an IC50 in assay [3] of 21 nM. Further, on rat VAP-1 enzyme (SSAO), the IC50 was 0.97 nM.
Take `Cc1cc(COC2CN(c3cccc(COC(=O)NC(=N)N)c3F)C2)cc(C)n1` [Example 555]: in assay [2], the “Inhibition Ratio (%) 1 h” value came to 67%, the “Inhibition Ratio (%) 3 h” value was 69%, the “Inhibition Ratio (%) 6 h” value is recorded as 54% and the “Inhibition Ratio (%) 24 h” value is given as 27%. In addition, in assay [3], half-maximal inhibition (IC50) was put at 20 nM. On rat VAP-1 enzyme (SSAO), this compound had an IC50 of 3.5 nM.
In the case of `N=C(N)NC(=O)OCc1cccc(N2CCN(c3ccn4ccnc4c3)CC2)c1F` [Example 556], in assay [2], the “Inhibition Ratio (%) 1 h” value is 55%, the “Inhibition Ratio (%) 3 h” value is reported as 70%, the “Inhibition Ratio (%) 6 h” value came out at 46% and the “Inhibition Ratio (%) 24 h” value is reported as 19%. The compound further showed an IC50 in assay [3] of 2.7 nM. The same compound returned an IC50 on rat VAP-1 enzyme (SSAO) of 1.3 nM.
`Cn1cc(OC2CN(c3cccc(COC(=O)NC(=N)N)c3F)C2)ccc1=O` [Example 557]: in assay [1], the “urinary albumin excretion relative to that of the control group” value came to 2.3 times and the “amount of urinary albumin excretion” value was determined as 105 mg/gCr. Further, in assay [2], the “Inhibition Ratio (%) 1 h” value is given as 53%, the “Inhibition Ratio (%) 3 h” value is given as 71%, the “Inhibition Ratio (%) 6 h” value is 56% and the “Inhibition Ratio (%) 24 h” value was 22%. Also, in assay [3], the half-inhibitory concentration (IC50) amounted to 11 nM. For the same compound, on rat VAP-1 enzyme (SSAO), the midpoint of inhibition, the IC50, lay at 1.6 nM.
Regarding `COCc1cncc(N2CCN(c3cccc(COC(=O)NC(=N)N)c3F)CC2)c1` [Example 558], in assay [2], the “Inhibition Ratio (%) 1 h” value amounted to 84%, the “Inhibition Ratio (%) 3 h” value was 87%, the “Inhibition Ratio (%) 6 h” value was 81% and the “Inhibition Ratio (%) 24 h” value is on record as 62%. Further, half-maximal inhibition in assay [3] (IC50) was put at 23 nM. At rat VAP-1 enzyme (SSAO), this compound returned an IC50 of 1.2 nM.
Regarding `CC(=O)N1CCC(C2CN(c3cccc(COC(=O)NC(=N)N)c3F)C2)CC1` [Example 559], in assay [2], the “Inhibition Ratio (%) 1 h” value was 86%, the “Inhibition Ratio (%) 3 h” value was 89%, the “Inhibition Ratio (%) 6 h” value was determined as 82% and the “Inhibition Ratio (%) 24 h” value stood at 59%. In addition, in assay [3], the IC50 was 4.3 nM. This compound registered an IC50 against rat VAP-1 enzyme (SSAO) of 0.81 nM.
For the compound `CCC(=O)N1CCC(C2CN(c3cccc(COC(=O)NC(=N)N)c3F)C2)CC1` [Example 560], in assay [2], the “Inhibition Ratio (%) 1 h” value came out at 89%, the “Inhibition Ratio (%) 3 h” value is recorded as 91%, the “Inhibition Ratio (%) 6 h” value turned out to be 84% and the “Inhibition Ratio (%) 24 h” value was 58%. The compound further returned an IC50 in assay [3] of 9 nM. Besides, the IC50 against rat VAP-1 enzyme (SSAO) stood at 1.4 nM.
For `N=C(N)NC(=O)OCc1cccc(N2CC(C3CCN(C(=O)C4CC4)CC3)C2)c1F` [Example 561], in assay [2], the “Inhibition Ratio (%) 1 h” value is 91%, the “Inhibition Ratio (%) 3 h” value is 92%, the “Inhibition Ratio (%) 6 h” value amounted to 85% and the “Inhibition Ratio (%) 24 h” value is 64%. In addition, the IC50 in assay [3] worked out at 9.6 nM. The compound also gave an IC50 at rat VAP-1 enzyme (SSAO) of 1.6 nM.
As to `COCC(=O)N1CCC(C2CN(c3cccc(COC(=O)NC(=N)N)c3F)C2)CC1` [Example 562], in assay [2], the “Inhibition Ratio (%) 1 h” value is 79%, the “Inhibition Ratio (%) 3 h” value was determined as 81%, the “Inhibition Ratio (%) 6 h” value worked out at 78% and the “Inhibition Ratio (%) 24 h” value was found to be 37%. Also, the IC50 in assay [3] stood at 14 nM. Further, on rat VAP-1 enzyme (SSAO), half-maximal inhibition (IC50) was put at 1.4 nM.
As for `COCCC(=O)N1CCC(C2CN(c3cccc(COC(=O)NC(=N)N)c3F)C2)CC1` [Example 563], in assay [2], the “Inhibition Ratio (%) 1 h” value is given as 69%, the “Inhibition Ratio (%) 3 h” value is on record as 77%, the “Inhibition Ratio (%) 6 h” value is 70% and the “Inhibition Ratio (%) 24 h” value was 43%. For the same compound, in assay [3], half-maximal inhibition (IC50) was put at 20 nM. Further, the IC50 against rat VAP-1 enzyme (SSAO) is 1.5 nM.
`CS(=O)(=O)N1CCC(C2CN(c3cccc(COC(=O)NC(=N)N)c3F)C2)CC1` [Example 564]: in assay [2], the “Inhibition Ratio (%) 1 h” value is on record as 89%, the “Inhibition Ratio (%) 3 h” value was determined as 90%, the “Inhibition Ratio (%) 6 h” value stood at 85% and the “Inhibition Ratio (%) 24 h” value worked out at 59%. Also, the IC50 in assay [3] was determined as 19 nM. This compound yielded an IC50 against rat VAP-1 enzyme (SSAO) of 1.5 nM.
`COCCOc1cc(N2CCN(c3cccc(COC(=O)NC(=N)N)c3F)CC2)ccn1` [Example 565]: in assay [2], the “Inhibition Ratio (%) 1 h” value came to 77%, the “Inhibition Ratio (%) 3 h” value was determined as 83%, the “Inhibition Ratio (%) 6 h” value is 71% and the “Inhibition Ratio (%) 24 h” value is given as 47%. The IC50 in assay [3] amounted to 19 nM. Moreover, the IC50 against rat VAP-1 enzyme (SSAO) came out at 2.5 nM.
As for `COCc1cc(N2CCN(c3cccc(COC(=O)NC(=N)N)c3F)CC2)ccn1` [Example 566], in assay [2], the “Inhibition Ratio (%) 1 h” value was 75%, the “Inhibition Ratio (%) 3 h” value came to 74%, the “Inhibition Ratio (%) 6 h” value amounted to 70% and the “Inhibition Ratio (%) 24 h” value was 38%. In addition, in assay [3], half-maximal inhibition (IC50) required 6.3 nM. In addition, it took 1.2 nM to reach half-maximal inhibition against rat VAP-1 enzyme (SSAO) (IC50).

The IC50 is the concentration needed to halve the response being measured. Higher therefore signals weaker potency in that assay.
